Measured values published in article PMC6409085, “Three odorant-binding proteins are involved in the behavioral response of Sogatella furcifera to rice plant volatiles” (PeerJ, 2019).
Values joined by “and” are separate entries in the source; they are usually repeats but may differ in a detail not shown here. Equal entries are not always repeated.

What was measured:
[1] = target: SfurOBP1 (Sogatella furcifera, UniProt V5T8N5); test: biochemical; format: binding; conditions: for Fluorescence competitive binding assay, fluorescence intensity: OBP1, three replicate columns
Sequence of SfurOBP1 (V5T8N5 entry or part of it): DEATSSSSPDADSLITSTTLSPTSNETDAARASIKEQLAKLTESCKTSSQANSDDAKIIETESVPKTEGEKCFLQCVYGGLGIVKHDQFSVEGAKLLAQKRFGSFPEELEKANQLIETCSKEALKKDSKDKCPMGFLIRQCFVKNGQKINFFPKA
How it was run: (§1)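 In 50 mM Tris-HCl pH 7.4, odorants displace 1-NPN (2.0 µM) from 2.0 µM protein. Emission at 390–490 nm under 337 nm excitation is measured 2 min after competitor addition, in triplicate. Ki is obtained from IC50 and the 1-NPN dissociation constant.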

[2] = target: SfurOBP3 (Sogatella furcifera, UniProt V5T818); test: biochemical; format: binding; conditions: for Fluorescence competitive binding assay, fluorescence intensity: OBP3, three replicate columns;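 as to Fluorescence competitive binding assay, fluorescence intensity: competitor odorant at 2 to 20 µM with protein and 1-NPN both 2.0 µM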
Sequence of SfurOBP3 (V5T818 entry or part of it): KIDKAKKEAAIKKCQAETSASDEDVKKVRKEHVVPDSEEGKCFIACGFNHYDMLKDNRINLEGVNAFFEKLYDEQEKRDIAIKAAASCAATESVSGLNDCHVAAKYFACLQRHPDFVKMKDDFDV
How it was run: as §1

[3] = target: SfurOBP11 (Sogatella furcifera, UniProt V5T6E3); test: biochemical; format: binding
Sequence of SfurOBP11 (V5T6E3 entry or part of it): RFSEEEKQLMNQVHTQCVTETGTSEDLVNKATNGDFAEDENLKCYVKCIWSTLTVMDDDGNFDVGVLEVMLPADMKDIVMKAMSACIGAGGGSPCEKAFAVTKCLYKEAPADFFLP
How it was run: as §1

[4] = target: SfurOBP2 (Sogatella furcifera, UniProt V5T759); test: biochemical; format: binding
Sequence of SfurOBP2 (V5T759 entry or part of it): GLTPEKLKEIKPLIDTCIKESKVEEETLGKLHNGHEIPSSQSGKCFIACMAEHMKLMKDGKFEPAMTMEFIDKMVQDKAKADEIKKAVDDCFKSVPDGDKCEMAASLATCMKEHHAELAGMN
How it was run: as §1

[5] = test system: S. furcifera adults; test: Y-tube olfactometer behavioral trials; format: in vivo, Sogatella furcifera; conditions: odorant 50 µL/L vs hexane; adults
How it was run: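 Single S. furcifera adults (2 days post-emergence, starved 0.5 h) chose between odorant (100 µL of 50 µL/L on filter paper) and hexane control in a glass Y-tube, charcoal-filtered humidified air 300 mL/min per arm, 25 ± 1 °C, 50% RH. Choice scored if insect passed half an arm and stayed >1 min within 10 min; 45 insects per compound, chi-squared test.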
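For Fluorescence competitive binding assay, fluorescence intensity in this document: competitor odorant at 2 to 20 µM with protein and 1-NPN both 2.0 µM.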

`C=C1CC/C=C(\C)CC[C@@H]2[C@@H]1CC2(C)C` [β-caryophyllene] was tested, and the IC50 [1] was > 20 µM, the “Fluorescence competitive binding assay, fluorescence intensity” value ([1]; ligand concentration 2 (μM)) was 5117 and 5425 and 5286 and the “Fluorescence competitive binding assay, fluorescence intensity” value ([1]; ligand concentration 4 (μM)) was 6363 and 5644 and 6004. For the same compound, the “Fluorescence competitive binding assay, fluorescence intensity” value ([1]; ligand concentration 6 (μM)) was 6522 and 6380 and 7207, the “Fluorescence competitive binding assay, fluorescence intensity” value ([1]; ligand concentration 8 (μM)) was 6475 and 7284 and 8411 and the “Fluorescence competitive binding assay, fluorescence intensity” value ([1]; ligand concentration 10 (μM)) was 6788 and 8986 and 9051. The “Fluorescence competitive binding assay, fluorescence intensity” value ([1]; ligand concentration 12 (μM)) was 7963 and 9385 and 12364, the “Fluorescence competitive binding assay, fluorescence intensity” value ([1]; ligand concentration 14 (μM)) was 10459 and 9678 and 17343 and the “Fluorescence competitive binding assay, fluorescence intensity” value ([1]; ligand concentration 16 (μM)) was 9671 and 11754 and 9907. For the same compound, the “Fluorescence competitive binding assay, fluorescence intensity” value ([1]; ligand concentration 18 (μM)) was 16605 and 15288 and 16195, the “Fluorescence competitive binding assay, fluorescence intensity” value ([1]; ligand concentration 20 (μM)) was 15809 and 13061 and 12977 and the IC50 [2] was > 20 µM. For the same compound, the “Fluorescence competitive binding assay, fluorescence intensity” value ([2]; ligand concentration 2) was 59910 and 62614 and 72673, the “Fluorescence competitive binding assay, fluorescence intensity” value ([2]; ligand concentration 4) was 64089 and 65130 and 67441 and the “Fluorescence competitive binding assay, fluorescence intensity” value ([2]; ligand concentration 6) was 62365 and 65722 and 64412. The “Fluorescence competitive binding assay, fluorescence intensity” value ([2]; ligand concentration 8) was 61822 and 63261 and 63413, the “Fluorescence competitive binding assay, fluorescence intensity” value ([2]; ligand concentration 10) was 59908 and 63429 and 67892 and the “Fluorescence competitive binding assay, fluorescence intensity” value ([2]; ligand concentration 12) was 56993 and 56771 and 64941. The “Fluorescence competitive binding assay, fluorescence intensity” value ([2]; ligand concentration 14) was 61557 and 60060 and 62301, the “Fluorescence competitive binding assay, fluorescence intensity” value ([2]; ligand concentration 16) was 39308 and 53990 and 51354 and the “Fluorescence competitive binding assay, fluorescence intensity” value ([2]; ligand concentration 18) was 76113 and 82456 and 70640. The “Fluorescence competitive binding assay, fluorescence intensity” value ([2]; ligand concentration 20) was 72444 and 66812 and 61866, the IC50 [3] was > 20 µM and the “Fluorescence intensity, fluorescence competitive binding assay, OBP11” value (from here on “Fluorescence intensity … OBP11”) ([3]; ligand concentration 2, replicate 1) was 23970. The “Fluorescence intensity … OBP11” value ([3]; ligand concentration 2, replicate 2) was 23335, the “Fluorescence intensity … OBP11” value ([3]; ligand concentration 2, replicate 3) was 21938 and the “Fluorescence intensity … OBP11” value ([3]; ligand concentration 4, replicate 1) was 23122. The “Fluorescence intensity … OBP11” value ([3]; ligand concentration 4, replicate 2) was 24566, the “Fluorescence intensity … OBP11” value ([3]; ligand concentration 4, replicate 3) was 25482 and the “Fluorescence intensity … OBP11” value ([3]; ligand concentration 6, replicate 1) was 23526. For the same compound, the “Fluorescence intensity … OBP11” value ([3]; ligand concentration 6, replicate 2) was 25770, the “Fluorescence intensity … OBP11” value ([3]; ligand concentration 6, replicate 3) was 26267 and the “Fluorescence intensity … OBP11” value ([3]; ligand concentration 8, replicate 1) was 21931. For the same compound, the “Fluorescence intensity … OBP11” value ([3]; ligand concentration 8, replicate 2) was 24474, the “Fluorescence intensity … OBP11” value ([3]; ligand concentration 8, replicate 3) was 27203 and the “Fluorescence intensity … OBP11” value ([3]; ligand concentration 10, replicate 1) was 23853. The “Fluorescence intensity … OBP11” value ([3]; ligand concentration 10, replicate 2) was 25460, the “Fluorescence intensity … OBP11” value ([3]; ligand concentration 10, replicate 3) was 25443 and the “Fluorescence intensity … OBP11” value ([3]; ligand concentration 12, replicate 1) was 23639. For the same compound, the “Fluorescence intensity … OBP11” value ([3]; ligand concentration 12, replicate 2) was 23490, the “Fluorescence intensity … OBP11” value ([3]; ligand concentration 12, replicate 3) was 23358 and the “Fluorescence intensity … OBP11” value ([3]; ligand concentration 14, replicate 1) was 23808. For the same compound, the “Fluorescence intensity … OBP11” value ([3]; ligand concentration 14, replicate 2) was 26534, the “Fluorescence intensity … OBP11” value ([3]; ligand concentration 14, replicate 3) was 25924 and the “Fluorescence intensity … OBP11” value ([3]; ligand concentration 16, replicate 1) was 22662. For the same compound, the “Fluorescence intensity … OBP11” value ([3]; ligand concentration 16, replicate 2) was 23024, the “Fluorescence intensity … OBP11” value ([3]; ligand concentration 16, replicate 3) was 23415 and the “Fluorescence intensity … OBP11” value ([3]; ligand concentration 18, replicate 1) was 30250. The “Fluorescence intensity … OBP11” value ([3]; ligand concentration 18, replicate 2) was 30294, the “Fluorescence intensity … OBP11” value ([3]; ligand concentration 18, replicate 3) was 30235 and the “Fluorescence intensity … OBP11” value ([3]; ligand concentration 20, replicate 1) was 30296. For the same compound, the “Fluorescence intensity … OBP11” value ([3]; ligand concentration 20, replicate 2) was 30444, the “Fluorescence intensity … OBP11” value ([3]; ligand concentration 20, replicate 3) was 30224 and the IC50 [4] was 2930 nM. The “Fluorescence competitive binding assay, OBP2 (raw fluorescence reading)” value ([4]; ligand concentration 2 (unit not given), replicate column 1 of 3) was 11458, the “Fluorescence competitive binding assay, OBP2 (raw fluorescence reading)” value ([4]; ligand concentration 2 (unit not given), replicate column 2 of 3) was 11327 and the “Fluorescence competitive binding assay, OBP2 (raw fluorescence reading)” value ([4]; ligand concentration 2 (unit not given), replicate column 3 of 3) was 11281. For the same compound, the “Fluorescence competitive binding assay, OBP2 (raw fluorescence reading)” value ([4]; ligand concentration 4 (unit not given), replicate column 1 of 3) was 12040, the “Fluorescence competitive binding assay, OBP2 (raw fluorescence reading)” value ([4]; ligand concentration 4 (unit not given), replicate column 2 of 3) was 12315 and the “Fluorescence competitive binding assay, OBP2 (raw fluorescence reading)” value ([4]; ligand concentration 4 (unit not given), replicate column 3 of 3) was 12582. For the same compound, the “Fluorescence competitive binding assay, OBP2 (raw fluorescence reading)” value ([4]; ligand concentration 6 (unit not given), replicate column 1 of 3) was 13825, the “Fluorescence competitive binding assay, OBP2 (raw fluorescence reading)” value ([4]; ligand concentration 6 (unit not given), replicate column 2 of 3) was 12794 and the “Fluorescence competitive binding assay, OBP2 (raw fluorescence reading)” value ([4]; ligand concentration 6 (unit not given), replicate column 3 of 3) was 13738. The “Fluorescence competitive binding assay, OBP2 (raw fluorescence reading)” value ([4]; ligand concentration 8 (unit not given), replicate column 1 of 3) was 13150, the “Fluorescence competitive binding assay, OBP2 (raw fluorescence reading)” value ([4]; ligand concentration 8 (unit not given), replicate column 2 of 3) was 13647 and the “Fluorescence competitive binding assay, OBP2 (raw fluorescence reading)” value ([4]; ligand concentration 8 (unit not given), replicate column 3 of 3) was 14723. For the same compound, the “Fluorescence competitive binding assay, OBP2 (raw fluorescence reading)” value ([4]; ligand concentration 10 (unit not given), replicate column 1 of 3) was 16274, the “Fluorescence competitive binding assay, OBP2 (raw fluorescence reading)” value ([4]; ligand concentration 10 (unit not given), replicate column 2 of 3) was 13413 and the “Fluorescence competitive binding assay, OBP2 (raw fluorescence reading)” value ([4]; ligand concentration 10 (unit not given), replicate column 3 of 3) was 15514. The “Fluorescence competitive binding assay, OBP2 (raw fluorescence reading)” value ([4]; ligand concentration 12 (unit not given), replicate column 1 of 3) was 16497, the “Fluorescence competitive binding assay, OBP2 (raw fluorescence reading)” value ([4]; ligand concentration 12 (unit not given), replicate column 2 of 3) was 15342 and the “Fluorescence competitive binding assay, OBP2 (raw fluorescence reading)” value ([4]; ligand concentration 12 (unit not given), replicate column 3 of 3) was 16204. For the same compound, the “Fluorescence competitive binding assay, OBP2 (raw fluorescence reading)” value ([4]; ligand concentration 14 (unit not given), replicate column 1 of 3) was 16950, the “Fluorescence competitive binding assay, OBP2 (raw fluorescence reading)” value ([4]; ligand concentration 14 (unit not given), replicate column 2 of 3) was 15785 and the “Fluorescence competitive binding assay, OBP2 (raw fluorescence reading)” value ([4]; ligand concentration 14 (unit not given), replicate column 3 of 3) was 16267. For the same compound, the “Fluorescence competitive binding assay, OBP2 (raw fluorescence reading)” value ([4]; ligand concentration 16 (unit not given), replicate column 1 of 3) was 16569, the “Fluorescence competitive binding assay, OBP2 (raw fluorescence reading)” value ([4]; ligand concentration 16 (unit not given), replicate column 2 of 3) was 16590 and the “Fluorescence competitive binding assay, OBP2 (raw fluorescence reading)” value ([4]; ligand concentration 16 (unit not given), replicate column 3 of 3) was 16267. The “Fluorescence competitive binding assay, OBP2 (raw fluorescence reading)” value ([4]; ligand concentration 18 (unit not given), replicate column 1 of 3) was 20111, the “Fluorescence competitive binding assay, OBP2 (raw fluorescence reading)” value ([4]; ligand concentration 18 (unit not given), replicate column 2 of 3) was 21295 and the “Fluorescence competitive binding assay, OBP2 (raw fluorescence reading)” value ([4]; ligand concentration 18 (unit not given), replicate column 3 of 3) was 20566. The “Fluorescence competitive binding assay, OBP2 (raw fluorescence reading)” value ([4]; ligand concentration 20 (unit not given), replicate column 1 of 3) was 21451, the “Fluorescence competitive binding assay, OBP2 (raw fluorescence reading)” value ([4]; ligand concentration 20 (unit not given), replicate column 2 of 3) was 21222 and the “Fluorescence competitive binding assay, OBP2 (raw fluorescence reading)” value ([4]; ligand concentration 20 (unit not given), replicate column 3 of 3) was 20042. The “number of insects choosing hexane arm” value [5] was 15, the “number of insects choosing volatilies arm” value [5] was 16 and the “number of insects failed (no choice)” value [5] was 9.
